The values below come from patent publication US10519148B2, “Acrylic acid derivative, preparation method and use in medicine thereof” (Zhejiang Hisun Pharmaceutical Co., Ltd., priority 2015, dated 2019).

The term IC50 denotes the concentration at which inhibition is half-maximal.

The target of assay [1] is T1, ERα (Homo sapiens, UniProt P03372).
T1 construct: host or cells: MCF-7
T1 sequence (P03372 1-595): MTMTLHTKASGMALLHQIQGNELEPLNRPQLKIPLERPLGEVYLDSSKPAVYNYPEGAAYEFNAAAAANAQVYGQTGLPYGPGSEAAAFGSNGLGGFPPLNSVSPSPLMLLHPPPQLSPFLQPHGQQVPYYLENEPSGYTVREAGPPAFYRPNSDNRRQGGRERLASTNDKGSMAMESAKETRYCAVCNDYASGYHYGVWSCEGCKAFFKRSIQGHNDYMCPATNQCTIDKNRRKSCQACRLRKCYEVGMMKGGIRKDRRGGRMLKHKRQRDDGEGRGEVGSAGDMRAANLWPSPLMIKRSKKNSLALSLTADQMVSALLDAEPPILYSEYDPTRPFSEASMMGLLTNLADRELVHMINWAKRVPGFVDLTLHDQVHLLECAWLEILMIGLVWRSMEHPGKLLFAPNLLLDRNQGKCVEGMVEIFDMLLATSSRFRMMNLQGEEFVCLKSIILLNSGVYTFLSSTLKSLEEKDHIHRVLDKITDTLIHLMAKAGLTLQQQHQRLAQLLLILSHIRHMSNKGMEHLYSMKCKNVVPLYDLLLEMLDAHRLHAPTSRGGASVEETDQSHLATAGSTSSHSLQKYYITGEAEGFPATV
In words: ERα down-regulation immunofluorescence assay in MCF-7 cells. The settings on record: immunofluorescence of ERα level, read-out: IC50 (nM) ERα down-degradation. The assay is classed as cell-based. As to the method: The down-regulation of the preferred compounds of the present invention on the protein level of ERα is evaluated by immunofluorescence assay using human breast cancer cell line MCF-7. MCF-7 cells used in the experiment were revived directly from frozen cells (about 5×10^6). The MCF-7 frozen cell line (Sigma D5921) purchased from Sigma was stored in DMEM medium containing 2 mM […]. 5% (v/v) Charcoal/Dextran-treated bovine serum […] were added to the revived MCF-7 cells and the cell concentration was determined using Coulter Counter.
The cells used for the test were diluted to 3.75×10^4 cells/mL with culture medium and 40 μL/well of the above cell suspension was transferred to 384-well black transparent bottom plates and incubated overnight at 37° C., 5% CO2. 10 mM compound stock solutions were diluted to a series of test concentrations (10 mM, 0.1 mM, 1 μM, 0.01 μM etc.) and dispensed into cell plates. 20 μL of 11.1% (v/v) aqueous formaldehyde solution (phosphate buffered saline) was added to each of the different concentrations of the test compounds and MCF-7 cell culture solution (40 μL), and the final concentration of formaldehyde in the solution was 3.7% (v/v). Cells were fixed at room temperature for 20 minutes, washed twice with 250 μL of PBS/Proclin, and then 40 μL of PBS/Proclin was added and refrigerated at 4° C. The immunostaining of the protein was performed using the automated AutoElisa kit. The PBS/Proclin solution was aspirated from each plate well and then 40 μL of PBS containing 0.5% Tween 20 (v/v) was added for cell permeation. After one hour, the plate was washed with 250 μL of PBS/0.05% Tween 20/Proclin for three times, and 20 μL of ERα rabbit monoclonal antibody (Thermofisher) in PBS/Tween™ 20/3% (w/v) BSA solution (1:1000) was added. The plates were incubated overnight at 4° C., washed three times with 250 μL of PBS/Tween™ 20/Proclin, and then 20 μL of goat anti-rabbit IgG AlexaFluor 594 or goat anti-rabbit IgG AlexaFluor 488 antibody (containing Hoechst stain (1:5000) in PBS/Tween™ 20/3% (w/v) BSA solution was added, and the system was incubated at room temperature for one hour. After the plates were washed three times with 250 μL of PBS/0.05% (v/v) Tween™ 20/Proclin, 20 μL of PBS was added and the paltes were kept in dark place at 4° C. The level of estrogen receptor ERα in MCF-7 cells was calculated through Cellomics Arrayscan detection of fluorescence emission intensity at two emission wave bands at 594 nm (24-hour time point) and 488 nm (5-hour time point). The average fluorescence emission intensity of each cell is positively correlated with the ERα receptor level of the cell. The primitive fluorescence data was used to obtain the fitting curve by software such as Origin or Genedata. Half maximal inhibitory concentration IC50 was used to characterize the down-regulation of estrogen receptor ERα by the test compounds, which is the concentration of the test compound when the fluorescence emission intensity is reduced to 50% of the average maximum fluorescence intensity.

The test system of assay [2] is MCF-7 human breast cancer cell line. Put plainly: Inhibition of MCF-7 cell proliferation (CCK-8). The assay is classed as cell-based. The settings on record: MCF7, MCF-7 cells, 72 hours. As to the method: 1. Reagents and Consumables
Cell Counting Reagent Kit 8 (Cell Counting Kit-8, Cat# CK04-13, Dojindo);
96-well culture plate (Cat #3599, Corning Costar);
Medium and fetal bovine serum (GIBCO);
Desktop Microplate Reader (SpectraMax M5 Microplate Reader, Molecular Devices);
MCF-7 human breast cancer cell line (purchased from Shanghai cell resource center, Chinese Academy of Sciences).
2. Preparation of Reagents
Preparation of culture medium: MEM+10% FBS+0.01 mg/ml Human recombinant insulin; Preparation of the compound: The compounds were diluted with DMSO to a final concentration of 10 mM;
(1) The logarithmic growth phase cells were collected, counted, resuspended the cells with complete culture medium. The cells were adjusted to the appropriate concentration (determined according to the cell density optimization test results) and inoculated into 96-well plates, 100 μL of cell suspension per well. The cells were incubated in an incubator for 24 hours at 37° C. with 100% relative humidity, 5% CO2; […]
(5) The absorbance at 450 nm wavelength was measured on a SpectraMax M5 Microplate Reader after gently shaking. The inhibition rate was calculated using the absorbance at 650 nm as a reference. […]

Regarding `C[C@@H]1Cc2c([nH]c3ccccc23)[C@@H](c2c(F)cc(/C=C/C(=O)O)cc2F)N1CC1(F)CC1` [Example 1, (E)-3-(3,5-difluoro-4-((1R,3R)-2-((1-fluorocyclopropyl)methyl)-3-methyl-2,3,4,9-tetrahydro-1H-pyrido[3,4-b]indol-1-yl)phenyl)acrylic acid], in assay [1], the DC50 was in the range of 0.1 to 10 nM. It took 0.34 nM to reach half-maximal inhibition in assay [2] (IC50).

With `C[C@@H]1Cc2c([nH]c3cccc(F)c23)[C@@H](c2c(F)cc(/C=C/C(=O)O)cc2F)N1CC1(F)CC1` [Example 12, (E)-3-(3,5-difluoro-4-((1R,3R)-5-fluoro-2-((1-fluorocyclopropyl)methyl)-3-methyl-2,3,4,9-tetrahydro-1H-pyrido[3,4-b]indol-1-yl)phenyl)acrylic acid], in assay [1], the DC50 was in the range of 0.1 to 10 nM. In assay [2], the IC50 stood at 1.45 nM.
